Reference: BindingDB's records for doi:10.1021/acschembio.6b00304 (Icahn School of Medicine At Mount Sinai, 2016)

The compounds below were run against T1, Solute carrier family 2, facilitated glucose transporter member 1 (Homo sapiens, UniProt P11166) (assay: [3H]-2-Deoxy-D-glucose ([3H]-2-DG) Uptake Assay).
T1 sequence (P11166 whole entry): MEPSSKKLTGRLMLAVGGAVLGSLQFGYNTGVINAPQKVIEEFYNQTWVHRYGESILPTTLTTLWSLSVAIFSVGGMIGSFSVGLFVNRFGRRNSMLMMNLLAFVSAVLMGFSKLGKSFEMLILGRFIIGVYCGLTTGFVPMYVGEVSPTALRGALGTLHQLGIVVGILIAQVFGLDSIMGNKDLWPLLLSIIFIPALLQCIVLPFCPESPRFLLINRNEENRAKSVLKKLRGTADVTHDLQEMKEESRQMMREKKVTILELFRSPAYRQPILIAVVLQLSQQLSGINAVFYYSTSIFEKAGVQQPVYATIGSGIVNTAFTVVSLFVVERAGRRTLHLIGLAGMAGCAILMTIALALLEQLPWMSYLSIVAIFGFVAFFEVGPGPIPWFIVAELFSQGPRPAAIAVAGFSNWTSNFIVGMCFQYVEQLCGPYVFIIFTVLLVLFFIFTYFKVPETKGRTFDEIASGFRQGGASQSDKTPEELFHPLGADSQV
Method: The stably transfected CHO cells were seeded in poly 24-well plates and were grown to 80−90% confluence. […] The known hGLUT1 inhibitor phloretin (Accela ChemBio, San Diego, CA) was included as a positive control. […] Compounds were obtained from the National Cancer Institute (NCI) or purchased from commercial vendors. The reaction was terminated by washing cells twice with ice-cold PBS, followed by the addition of 200 μL of lysis buffer (0.1% (w/v) SDS, 0.1 N NaOH).Intracellular radioactivity was determined by scintillation counting.

| IC50 [µM] | SMILES |
| --- | --- |
| 11.8 | O=c1[nH]ncc2c1Sc1cn[nH]c(=O)c1S2 [PUG-7] |
| 27.1 | NNc1nc(NCc2ccco2)c2nc[nH]c2n1 [PUG-3] |
| 23 | O=C(CCc1ccc(O)cc1)c1c(O)cc(O)cc1O[C@H]1O[C@@H](CO)[C@H](O)[C@@H](O)[C@@H]1O [PUG-5 (Phlorizin)] |
| 30 | c1ccc(CNc2ncnc3n[nH]nc23)cc1 [PUG-4] |
| 58.6 | O=c1[nH]c(=O)c2ncn(-c3ccccc3)c2[nH]1 [PUG-2] |
| 22.5 | O=c1[nH][nH]c(=O)c2[nH]cnc12 [PUG-8] |
| 37.9 | CC[C@@H]1O[C@H](c2cc(O)cc(/C=C/c3ccc(O)c(O)c3)c2)[C@@H](O)[C@H](O)[C@H]1O [PUG-6] |
